Measurements published in publication PMC2996101 (Journal of natural products, 2009).

Legend:
[1] = tested on: human lung adenocarcinoma cells over human leukemic lymphoid cells; assay: Soft agar disk diffusion assay; assay type: cell-based; details: Table S4
12-hLO [2] = details: read-out: previous IC50 12-hLO; previous work without Triton X100 ref 9; cited from earlier work
15-hLO = details: read-out: previous IC50 15-hLO; previous work without Triton X100 ref 9; cited from earlier work
[3] = target: T1, human 5-lipoxygenase (5-hLO) (Homo sapiens, UniProt P09917); assay: Lipoxygenase assay, 5-hLO; details: ratio of IC50 values
T1 sequence (P09917 1-674): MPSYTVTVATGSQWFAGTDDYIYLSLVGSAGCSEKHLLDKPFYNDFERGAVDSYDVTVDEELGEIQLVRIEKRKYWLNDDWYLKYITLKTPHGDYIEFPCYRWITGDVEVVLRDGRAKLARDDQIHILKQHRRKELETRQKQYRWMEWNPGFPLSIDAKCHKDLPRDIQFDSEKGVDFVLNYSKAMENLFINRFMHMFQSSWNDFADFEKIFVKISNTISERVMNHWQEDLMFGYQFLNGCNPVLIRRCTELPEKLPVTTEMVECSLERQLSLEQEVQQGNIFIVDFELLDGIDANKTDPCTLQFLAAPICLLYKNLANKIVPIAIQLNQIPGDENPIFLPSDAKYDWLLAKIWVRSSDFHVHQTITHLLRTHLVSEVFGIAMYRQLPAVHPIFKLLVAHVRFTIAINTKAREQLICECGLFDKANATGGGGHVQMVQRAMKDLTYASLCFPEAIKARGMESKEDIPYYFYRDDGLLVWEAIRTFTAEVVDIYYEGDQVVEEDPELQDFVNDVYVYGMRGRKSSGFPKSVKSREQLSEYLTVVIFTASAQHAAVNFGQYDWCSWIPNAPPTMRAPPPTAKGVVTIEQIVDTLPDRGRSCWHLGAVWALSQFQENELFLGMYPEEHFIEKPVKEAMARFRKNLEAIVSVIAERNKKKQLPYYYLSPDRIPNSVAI

12-hLO [4] = details: data from literature ref 20; cited from earlier work

| SMILES | selectivity against solid tumor cells [1] | IC50 (12-hLO [2]) | IC50 (15-hLO) | 12-hLO/5-hLO selectivity ratio [3] | 15-hLO/5-hLO selectivity ratio [3] | 12-hLO activity (12-hLO [4]) |
| --- | --- | --- | --- | --- | --- | --- |
| CC1(C)CCC[C@]2(C)[C@H]3C=C4C=C(O)C(=O)C=C4O[C@@]3(C)CC[C@@H]12 [Compound 1, puupehenone] | modest selectivity | 8300 nM | 800 nM | 32 | 9 | – |
| CC1(C)CCC[C@]2(C)[C@H]3C=C4C(=CC(=O)[C@@H]4O)O[C@@]3(C)CC[C@@H]12 [Compound 3, 20-hydroxyhaterumadienone] | – | – | – | ~ 3 | ~ 3 | – |
| CC1(C)CCC[C@]2(C)C3=CC4=CC(=O)C(=O)C=C4O[C@@]3(C)CC[C@@H]12 [Compound 5, puupehedione] | – | – | – | 4 | – | – |
| CC1=C(CC/C(C)=C/CC/C(C)=C/Cc2cc(O)ccc2O)C(C)(C)CCC1 [Compound 9, jaspaquinol] | – | 4500 nM | 300 nM | > 111 | 42 | – |
| C[C@@H](c1cc2ccccc2s1)N(O)C(N)=O [Compound 13, zileuton] | – | – | – | – | – | Active ^*, ^** |
